The test addresses T1, purified ITK (Invitrogen PV3875) (Homo sapiens, UniProt Q08881).
T1 construct: purchased Invitrogen PV3875
T1 sequence (Q08881 1-620): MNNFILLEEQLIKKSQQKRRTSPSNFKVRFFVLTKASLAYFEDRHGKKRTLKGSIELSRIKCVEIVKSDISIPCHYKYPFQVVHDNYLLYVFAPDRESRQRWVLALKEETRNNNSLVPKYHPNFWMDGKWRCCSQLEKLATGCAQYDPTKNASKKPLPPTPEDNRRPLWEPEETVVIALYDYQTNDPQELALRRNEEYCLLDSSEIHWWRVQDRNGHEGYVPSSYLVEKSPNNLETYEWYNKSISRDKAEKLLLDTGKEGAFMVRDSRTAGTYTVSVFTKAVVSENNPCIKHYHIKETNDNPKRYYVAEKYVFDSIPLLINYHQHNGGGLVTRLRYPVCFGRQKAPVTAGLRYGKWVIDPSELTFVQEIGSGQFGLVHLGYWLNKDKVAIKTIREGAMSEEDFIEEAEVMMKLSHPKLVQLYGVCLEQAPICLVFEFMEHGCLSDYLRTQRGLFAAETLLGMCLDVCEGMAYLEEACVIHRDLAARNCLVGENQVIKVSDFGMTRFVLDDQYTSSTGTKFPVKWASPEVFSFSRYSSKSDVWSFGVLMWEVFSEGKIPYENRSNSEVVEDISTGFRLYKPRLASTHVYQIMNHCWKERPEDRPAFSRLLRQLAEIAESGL
Put plainly: ITK peptide phosphorylation assay (Caliper LabChip or LCMS). It counts as biochemical. In a few lines:
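Ki values come from Morrison quadratic fits of activity versus inhibitor concentration, adjusted for ATP-competitive inhibition against ATP/Km,app. Substrate and phosphopeptide from purified ITK reactions were resolved either microfluidically (Caliper, EDTA stop) or by LC-MS MRM (TCA stop).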

The mark [1] stands for this setting: Table 2, Examples 1-140, class symbols.

What is called Ki is the dissociation constant of the complex between target and ligand, obtained from inhibition or displacement. Read a low Ki as higher affinity.

For `O=C(Nc1cnn(Cc2cccnn2)c1)c1n[nH]c2cc(-c3cn[nH]c3)ccc12` [Example 225, 6-(1H-pyrazol-4-yl)-N-[1-(pyridazin-3-ylmethyl)pyrazol-4-yl]-1H-indazole-3-carboxamide], the Ki (Table 1, Examples 141-279) was found to be 4.85 nM.
Take `CN1CCOc2cc(-c3ccc4c(C(=O)Nc5cnn(Cc6cccnc6)c5)n[nH]c4c3)cnc21` [Example 231, 6-(4-methyl-2,3-dihydropyrido[3,2-b][1,4]oxazin-7-yl)-N-[1-(3-pyridylmethyl)py-razol-4-yl]-1H-indazole-3-carboxamide]: affinity (Table 1, Examples 141-279) was put at a Ki of 40.8 nM.
The molecule `N#Cc1cccc(Cn2cc(NC(=O)c3n[nH]c4ccc(C5(CO)CC5)cc34)cn2)c1` [Example 193, N-[1-[(3-cyanophenyl)meth-yl]pyrazol-4-yl]-5-[1-(hydroxymeth-yl)cyclopropyl]-1H-indazole-3-carboxamide] gave a Ki (Table 1, Examples 141-279) of 26.3 nM.
Molecule `O=C(Nc1cnn(CC2COCCO2)c1)c1n[nH]c2cc(-c3cn[nH]c3)ccc12` (centres unmarked) [Example 237] registered a Ki (Table 1, Examples 141-279) of 3.7 nM.
Under setting [1], `Cn1cc(-c2ccc3c(C(=O)Nc4cnn(Cc5cccc(C#N)c5)c4)n[nH]c3c2)cn1` [Example 121, N-(1-(3-cyanobenzyl)-1H-pyrazol-4-yl)-6-(1-methyl-1H-pyrazol-4-yl)-1H-indazole-3-carboxamide] displayed a Ki of 1 to 100 nM.
Turning to `N#Cc1cccc(Cn2cc(NC(=O)c3n[nH]c4cc(-c5cccnc5)c(F)cc34)cn2)c1` [Example 153, N-[1-[(3-cyanophenyl)meth-yl]pyrazol-4-yl]-5-fluoro-6-(3-pyridyl)-1H-indazole-3-carboxamide], the Ki (Table 1, Examples 141-279) was 57.5 nM.
The molecule `O=C(Nc1cn[nH]c1)c1n[nH]c2cc(-c3cn[nH]c3)ccc12` [Example 168, N,6-bis(1H-pyrazol-4-yl)-1H-indazole-3-carboxamide] displayed a Ki (Table 1, Examples 141-279) of 21.6 nM.
Same read-out and setting: under `O=C(Nc1cnn(CC2CCCOC2)c1)c1n[nH]c2cc(-c3cn[nH]c3)ccc12` (centres unmarked) [Example 241, 6-(1H-pyrazol-4-yl)-N-[1-(tetrahydropyran-3-ylmethyl)pyrazol-4-yl]-1H-indazole-3-carboxamide] stands 2.79 nM; under `O=C(Nc1cnn(Cc2cnc(N3CCOCC3)nc2)c1)c1n[nH]c2cc(-c3cn[nH]c3)ccc12` [Example 227, N-[1-[(2-morpholinopy-rimidin-5-yl)methyl]pyrazol-4-yl]6-(1H-pyrazol-4-yl)-1H-indazole-3-carboxamide], 2.36 nM.
For the molecule `CC[C@@H](c1ccccc1)n1cc(NC(=O)c2n[nH]c3cc(-c4ccncc4)ccc23)cn1` [Example 140, (S)—N-(1-(1-phenylpropyl)-1H-pyrazol-4-yl)-6-(pyridin-4-yl)-1H-indazole-3-carboxamide], the Ki under setting [1] lay within 1 to 100 nM.
For the molecule `Cc1cccc(C(CCN(C)C)n2cc(NC(=O)c3n[nH]c4cc(-c5cn[nH]c5)ccc34)cn2)c1` (centres unmarked) [Example 246, N-[1-[3-(dimethylamino)-1-(m-tolyl)propyl]py-razol-4-yl]-6-(1H-pyrazol-4-yl)-1H-indazole-3-carboxamide], where the note is “Table 1, Examples 141-279”, the Ki came out at 0.0734 nM.
Under setting [1], `COC(=O)c1cccc(Cn2cc(NC(=O)c3n[nH]c4cc(-c5cn[nH]c5)ccc34)cn2)c1` [Example 10, 3-(4-{[6-(1H-Pyrazol-4-yl)-1H-indazole-3-carbonyl]-amino}-pyrazol-1-ylmethyl)-benzoic acid methyl ester] showed a Ki of 1 to 100 nM.
`COc1cncc(-c2ccc3c(C(=O)Nc4cnn(C(CCN(C)C)c5ccccc5)c4)n[nH]c3c2)c1` (centres unmarked) [Example 212, N-[1-[3-(dimethylamino)-1-phenyl-propyl]pyrazol-4-yl]-6-(5-methoxy-3-pyridyl)-1H-indazole-3-carboxamide] yielded a Ki (Table 1, Examples 141-279) of 1.64 nM.
`CNC(=O)c1ccc(Cn2cc(NC(=O)c3n[nH]c4cc(-c5cccnc5)ccc34)cn2)o1` [Example 33, N-[1-[[5-(methylcarbamoyl)-2-furyl]methyl]pyrazol-4-yl]-6-(3-pyridyl)-1H-indazole-3-carboxamide] registered a Ki under setting [1] of 1 to 100 nM.
Under setting [1], `CC(O)CNCc1ccc(Cn2cc(NC(=O)c3n[nH]c4ccccc34)cn2)cc1` (centres unmarked) [Example 106, N-(1-(4-((2-hydroxypropylamino)methyl)benzyl)-1H-pyrazol-4-yl)-1H-indazole-3-carboxamide] yielded a Ki of 1 to 100 nM.
Under setting [1], `O=C(Nc1cnn(Cc2cc(Cl)cc(Cl)c2)c1)c1n[nH]c2ccccc12` [Example 57, N-(1-(3,5-dichlorobenzyl)-1H-pyrazol-4-yl)-1H-indazole-3-carboxamide] returned a Ki of 1 to 100 nM.
In turn, `CN(C)CCC(c1ccccc1)n1cc(NC(=O)c2n[nH]c3cc(-c4cccnc4)ccc23)cn1` (centres unmarked) [Example 157, N-[1-[3-(dimethylamino)-1-phenyl-propyl]pyrazol-4-yl]-6-(3-pyridyl)-1H-indazole-3-carboxamide] returned a Ki (Table 1, Examples 141-279) of 7.81 nM.
The molecule `O=C(Nc1cnn(Cc2cncnc2)c1)c1n[nH]c2cc(-c3cn[nH]c3)ccc12` [Example 226, 6-(1H-pyrazol-4-yl)-N-[1-(pyrimidin-5-ylmethyl)pyrazol-4-yl]-1H-indazole-3-carboxamide] returned a Ki (Table 1, Examples 141-279) of 1.12 nM.
Molecule `CCC(CC)Cn1cc(NC(=O)c2n[nH]c3cc(-c4cn[nH]c4)ccc23)cn1` [Example 238, N-[1-(2-ethylbutyl)pyrazol-4-yl]-6-(1H-pyrazol-4-yl)-1H-indazole-3-carboxamide] registered a Ki (Table 1, Examples 141-279) of 2.79 nM.
For `Cc1ccc2[nH]nc(C(=O)Nc3cnn(Cc4cccc(C#N)c4)c3)c2c1` [Example 2, N-(1-(3-cyanobenzyl)-1H-pyrazol-4-yl)-5-methyl-1H-indazole-3-carboxamide], the Ki reads like this: under setting [1], 1 to 100 nM; (Table 3, specific values for certain examples) 16.5 nM.
Consider “6-(6-methoxy-3- pyridyl)-N-[1-(3- pyridylmethyl)py- razol-4-yl]-1H- indazole-3- carboxamide [Example 244]”, for which, for the setting “Table 1, Examples 141-279”, affinity was put at a Ki of 32.3 nM.
Same read-out and setting: as for `COc1cncc(-c2ccc3c(C(=O)Nc4cnn(C(CN5CCN(C)CC5)c5cccnc5)c4)n[nH]c3c2)c1` (centres unmarked) [Example 232, 6-(5-methoxy-3-pyridyl)-N-[1-[2-(4-methylpiperazin-1-yl)-1-(3-pyridyl)ethyl]py-razol-4-yl]-1H-indazole-3-carboxamide], the figure is 31.4 nM.
`O=C(Nc1cnn(Cc2csc(-c3ccccc3)n2)c1)c1n[nH]c2cc(-c3cn[nH]c3)ccc12` [Example 20, 6-(1H-Pyrazol-4-yl)-1H-indazole-3-carboxylic acid [1-(2-phenyl-thiazol-4-ylmethyl)-1H-pyrazol-4-yl]-amide] registered a Ki under setting [1] of 1 to 100 nM.
Molecule `Cc1cncc(-c2ccc3c(C(=O)Nc4cnn(Cc5cccc(C#N)c5)c4)n[nH]c3c2)c1` [Example 199, N-[1-[(3-cyanophenyl)meth-yl]pyrazol-4-yl]-6-(5-methyl-3-pyridyl)-1H-indazole-3-carboxamide] yielded a Ki (Table 1, Examples 141-279) of 8.41 nM.
The molecule `COCCN(C)CC(c1cccnc1)n1cc(NC(=O)c2n[nH]c3cc(-c4cncc(OC)c4)ccc23)cn1` (centres unmarked) [Example 229, N-[1-[2-[2-methoxyethyl(meth-yl)amino]-1-(3-pyridyl)ethyl]py-razol-4-yl]-6-(5-methoxy-3-pyridyl)-1H-indazole-3-carboxamide] displayed a Ki (Table 1, Examples 141-279) of 32.4 nM.
`CC(C)n1cc(NC(=O)c2n[nH]c3cc(-c4cn[nH]c4)ccc23)cn1` [Example 192, N-(1-isopropylpyrazol-4-yl)-6-(1H-pyrazol-4-yl)-1H-indazole-3-carboxamide] yielded an inhibition constant (Ki) (Table 1, Examples 141-279) of 10.2 nM.
Under “Table 1, Examples 141-279”, `COc1cncc(-c2ccc3c(C(=O)Nc4cnn(Cc5ccccn5)c4)n[nH]c3c2)c1` [Example 221, 6-(5-methoxy-3-pyridyl)-N-[1-(2-pyridylmethyl)py-razol-4-yl]-1H-indazole-3-carboxamide] gave a Ki of 51.4 nM.
For the molecule `O=C(Nc1cnn(Cc2ccccc2)c1)c1n[nH]c2cc(-c3cncc(F)c3)ccc12` [Example 210, N-(1-benzylpyrazol-4-yl)-6-(5-fluoro-3-pyridyl)-1H-indazole-3-carboxamide], for the setting “Table 1, Examples 141-279”, the Ki came to 5 nM.

The values above are taken from patent publication US20140309210A1, “INDAZOLE COMPOUNDS, COMPOSITIONS AND METHODS OF USE THEREOF” (Genentech, Inc., priority 2011, published 2014).
